# Laboratory results from US10407467B2, “Polymyxin derivatives and their use in combination therapy together with different antibiotics” (priority 2013, dated 2019).
# Like-named read-outs stand apart in the source and are kept apart here. Bridge positions count the residues as written; N and C are the ends. Square brackets hold non-standard residues; d marks the D form. Peptide text beside a SMILES is read from it. * marks the point of attachment. ξ: configuration not given here. ξβ3hGly(cHex) = NC(CC(=O)*)C1CCCCC1; Thr(3ξ) = CC(O)[C@H](N)C(=O)O; Dab = NCC[C@H](N)C(=O)O
# How the values were obtained:
# [1] = rats, 8 mg/kg BID regimen, seven days, compared to Colistin at the same dose regimen
# Protocol: After one week acclimatisation, male Sprague-Dawley rats were surgically prepared with a jugular cannula and were housed individually, as required, either in pre-assigned housing cages or metabolic cages. Colistin and the Example Compounds were prepared in saline.
# Compounds were introduced via the jugular cannula twice a day 7 hours apart for seven days. Each dose was increased progressively for three days up to the top dose that was then administered until termination of the study. Twenty-four hour urine collection (on ice) was performed at pre-dose and on days 4 and 7. The dose regimen is set out in Table 10 below.
# The doses in the table are indicated in mg drug base/kg (free base).
# The activity in urine of the N-acetyl-beta-D-glucosaminidase (NAG) was determined spectrophotometrically using the NAG assay kit from Roche Applied Science. Biomarkers of kidney injury were determined using the Kidney Injury Panel II from the Multi-Spot® Assay System (Meso Scale Discovery).
# [2] = system: Klebsiella pneumoniae ATCC10031; conditions: 10 mg/kg/day, neutropenic mice thigh infection
# E. coli ATCC25922 = system: E. coli ATCC25922
# Protocol: Mice were rendered temporarily neutropenic by immunosuppression with cyclophosphamide at 150 mg/kg 4 days before infection and 100 mg/kg 1 day before infection by intraperitoneal injection.
# Compounds were administered in solution by intravenous (IV) injection into the lateral tail vein. […] The vehicle control group was treated with vehicle (0.9% saline for injection) also at 10 mL/kg IV thrice at 1, 3.5 and 6 hours post infection.
# (§1) At 1 hour post infection, 4 animals were humanely euthanized using pentabarbitone overdose to provide a pre-treatment control group. At 9 hours post infection, the clinical condition of all animals was assessed prior to them being humanely euthanized by pentabarbitone overdose. Animal weight was determined before both thighs were removed and weighed individually. Individual thigh tissue samples were homogenized in ice cold sterile phosphate buffered saline. Thigh homogenates were then quantitatively cultured onto CLED agar and incubated at 37° C. for 24 hours before colonies were counted.
# P. aeruginosa ATCC27853 = assay type: in vivo, Pseudomonas aeruginosa; conditions: 1:1 with rifampicin at a total dose of 5 mg/kg, IV at 1, 3.5 and 6 hours
# Protocol: as §1, with “Compounds were administered in solution by intravenous (IV) bolus injection into the lateral tail vein. […] At 1” for “At 1”
Molecule,"levels of the renal biomarkers NAG, albumin and cystatin C in urine [1]",reduction in bacterial counts [2],log reduction in bacterial counts compared to the non-treated control (E. coli ATCC25922; 1:1 combination with Rifampicin at 4 mg/Kg total dose),"Log reduction from vehicle (CFU/g) (E. coli ATCC25922; Table 9, monotherapy 0.125 mg/kg IV at 1, 3.5 and 6 h post infection, 9 h)","Log reduction from vehicle (CFU/g) (E. coli ATCC25922; Table 9, monotherapy 0.5 mg/kg IV at 1, 3.5 and 6 h post infection, 9 h)","Log reduction from vehicle (CFU/g) (E. coli ATCC25922; Table 12, alone 4 mg/kg (sulfate salt) IV)",log reduction in bacterial counts compared to non-treated control (P. aeruginosa ATCC27853),"Log reduction from vehicle (CFU/g) (P. aeruginosa ATCC 27853; Table 14, 1 mg/kg (sulfate salt) IV at 1, 3.5 and 6 h, 9 h)","Log reduction from vehicle (CFU/g) (P. aeruginosa ATCC 27853; Table 14, 2 mg/kg (sulfate salt) IV at 1, 3.5 and 6 h, 9 h)","Log reduction from vehicle (CFU/g) (P. aeruginosa ATCC 27853; Table 14, 4 mg/kg (sulfate salt) IV at 1, 3.5 and 6 h, 9 h)","Log reduction from vehicle (CFU/g) (P. aeruginosa ATCC 27853; Table 15, 1 mg/kg (sulfate salt) IV, 9 h)","Log reduction from vehicle (CFU/g) (P. aeruginosa ATCC 27853; Table 15, 2 mg/kg (sulfate salt) IV, 9 h)","Log reduction from vehicle (CFU/g) (P. aeruginosa ATCC 27853; Table 15, 4 mg/kg (sulfate salt) IV, 9 h)","Log reduction from vehicle (CFU/g) (P. aeruginosa ATCC 27853; Table 16, 0.85 mg/kg free base equivalent, infection level ~1×10^4 CFU/mouse thigh)","Log reduction from vehicle (CFU/g) (P. aeruginosa ATCC 27853; Table 16, 3.4 mg/kg free base equivalent, infection level ~1×10^4 CFU/mouse thigh)"
"CC(C)C[C@@H]1NC(=O)[C@@H](Cc2ccccc2)NC(=O)[C@H](CCN)NC(=O)[C@@H](NC(=O)[C@H](CCN)NC(=O)[C@@H](NC(=O)CC(N)C2CCCCC2)C(C)O)CCNC(=O)[C@H](C(C)O)NC(=O)[C@H](CCN)NC(=O)[C@H](CCN)NC1=O (stereo partly drawn) [Example 10, [3(R,S)-3-Amino-3-cyclohexane-propanoyl]Polymyxin B nonapeptide] ({ξβ3hGly(cHex)}-[Thr(3ξ)][Dab][Dab][Dab][dF]L[Dab][Dab][Thr(3ξ)]; lactam 3-C)",significantly reduced levels,approx. 2 log10,,,,,,,,,,,,,
Polymyxin B [reference compound],,,4.8 log,−0.36 log CFU/g,1.93 log CFU/g,3.61 log CFU/g,5.37 log,0.58 log CFU/g,1.67 log CFU/g,5.09 log CFU/g,−0.12 log CFU/g,1.40 log CFU/g,3.41 log CFU/g,1.19 log CFU/g,4.23 log CFU/g
